Assay results published in BindingDB's records for doi:10.3109/14756366.2011.645241 (Cairo University, 2013).

Tests used:
Cannabinoid receptor 1 = Cannabinoid receptor 1 (Homo sapiens, UniProt P21554); test: Cannabinoid Receptor Binding Assay
Description: (§1) Membranes from HEK-293 cells transfected with the human recombinant CB1 receptor(Bmax=2.5pmol/mg protein) and human recombinant CB2 receptor (B max=4.7 pmol/mgprotein) were incubated with [3H]-CP-55,940 (0.14 nM / Kd = 0.18 nM and 0.084nM / Kd =0.31 nM respectively for CB1 and CB2 receptor) as the high affinity ligand and displaced with 10 μM WIN 55212-2 as the heterologous competitor for non specific binding (Ki values 9.2 nM and 2.1 nM respectively for CB1 and CB2 receptor). All compounds were tested following the procedure described by the manufacturer (Perkin Elmer, Italy). Displacement curves were generated by incubating drugs with [3H]-CP-55,940 for 90 minutes at 30 C. Ki values were calculated by applying the Cheng-Prusoff equation to the IC50 values (obtained by GraghPad) for the displacement of the bound radioligand by increasing concentrations of the testcompound. Data are means±SEM of at least n=3 experiments.

Cannabinoid receptor 2 = Cannabinoid receptor 2 (Homo sapiens, UniProt P34972); test: Cannabinoid Receptor Binding Assay
Description: as §1

Cannabinoid receptor 2, sequence (P34972 whole entry): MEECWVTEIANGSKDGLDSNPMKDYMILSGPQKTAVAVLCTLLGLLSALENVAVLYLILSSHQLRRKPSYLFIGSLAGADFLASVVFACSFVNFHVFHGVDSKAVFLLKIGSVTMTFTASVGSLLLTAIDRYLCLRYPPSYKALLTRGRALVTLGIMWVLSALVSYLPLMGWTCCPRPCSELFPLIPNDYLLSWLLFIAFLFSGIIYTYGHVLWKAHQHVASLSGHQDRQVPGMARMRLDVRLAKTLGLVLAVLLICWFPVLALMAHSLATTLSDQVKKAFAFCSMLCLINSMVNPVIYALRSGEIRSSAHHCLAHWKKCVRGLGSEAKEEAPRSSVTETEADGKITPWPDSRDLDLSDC
Cannabinoid receptor 1, sequence (P21554 whole entry): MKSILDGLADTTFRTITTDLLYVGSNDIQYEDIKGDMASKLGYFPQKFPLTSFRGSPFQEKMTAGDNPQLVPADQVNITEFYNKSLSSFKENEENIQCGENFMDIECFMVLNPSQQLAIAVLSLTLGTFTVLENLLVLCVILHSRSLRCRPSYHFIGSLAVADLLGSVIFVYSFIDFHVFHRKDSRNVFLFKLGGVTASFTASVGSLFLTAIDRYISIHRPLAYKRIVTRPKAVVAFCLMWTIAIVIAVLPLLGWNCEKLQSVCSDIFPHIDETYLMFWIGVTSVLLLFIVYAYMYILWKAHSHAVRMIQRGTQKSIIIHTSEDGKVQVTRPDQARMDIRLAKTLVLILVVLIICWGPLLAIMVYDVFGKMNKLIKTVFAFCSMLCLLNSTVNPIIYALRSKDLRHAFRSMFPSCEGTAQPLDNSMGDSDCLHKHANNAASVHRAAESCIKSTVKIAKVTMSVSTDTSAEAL

CCOC(=O)CNC(=O)CCC(=O)/C=C/c1ccc(OC)c(OC)c1 [(E)-Ethyl 2-(6-(3,4-dimethoxyphenyl)-4-oxohex-5-enamido)acetate (3h)]
> 10 µM: IC50 (Cannabinoid receptor 1) | Ki (Cannabinoid receptor 1) | IC50 (Cannabinoid receptor 2) | Ki (Cannabinoid receptor 2)

CCC(C)(O)NC(=O)CCC(=O)/C=C/c1ccc(OC)c(OC)c1 (stereo not given) [(E)-6-(3,4-Dimethoxyphenyl)-N-(2-hydroxybutan-2-yl)-4-oxohex-5-enamide (3i)]
> 10 µM: IC50 (Cannabinoid receptor 1) | Ki (Cannabinoid receptor 1) | IC50 (Cannabinoid receptor 2) | Ki (Cannabinoid receptor 2)

O=C(/C=C/c1ccccc1)CCC(=O)NC(CO)(CO)CO [(E)-N-(1,3-Dihydroxy-2-(hydroxymethyl)propan-2-yl)-4-oxo-6-phenylhex-5-enamide (3b)]
> 10 µM: IC50 (Cannabinoid receptor 1) | Ki (Cannabinoid receptor 1) | IC50 (Cannabinoid receptor 2) | Ki (Cannabinoid receptor 2)

CC(=O)Nc1ccc(OC(=O)CCC(=O)Nc2cccc3ccccc23)cc1 [4-Acetamidophenyl 4-(naphthalen-1-ylamino)-4-oxobutanoate (5c)]
> 10 µM: IC50 (Cannabinoid receptor 1) | Ki (Cannabinoid receptor 1) | IC50 (Cannabinoid receptor 2) | Ki (Cannabinoid receptor 2)

CCOC(=O)CNC(=O)CCC(=O)Nc1cccc2ccccc12 [Ethyl 2-(4-(naphthalen-1-ylamino)-4-oxobutanamido)acetate (5b)]
> 10 µM: IC50 (Cannabinoid receptor 1) | Ki (Cannabinoid receptor 1) | IC50 (Cannabinoid receptor 2) | Ki (Cannabinoid receptor 2)

Cc1ccc(/C=C/C(=O)CCC(=O)Nc2ccc(O)cc2)cc1 [(E)-N-(4-Hydroxyphenyl)-4-oxo-6-p-tolylhex-5-enamide (3f)]
> 10 µM: IC50 (Cannabinoid receptor 1) | Ki (Cannabinoid receptor 1) | IC50 (Cannabinoid receptor 2) | Ki (Cannabinoid receptor 2)

CCOC(=O)CNC(=O)CCC(=O)/C=C/c1ccc(OCc2ccccc2)cc1 [(E)-Ethyl 2-(6-(4-(benzyloxy)phenyl)-4-oxohex-5-enamido)acetate (3k)]
> 10 µM: IC50 (Cannabinoid receptor 1) | Ki (Cannabinoid receptor 1) | IC50 (Cannabinoid receptor 2) | Ki (Cannabinoid receptor 2)

CCC(C)(O)NC(=O)CCC(=O)/C=C/c1ccc(N(C)C)cc1 (stereo not given) [(E)-6-[4-(Dimethylamino)phenyl]-N-(2-hydroxybutan-2yl)-4-oxohex-5-enamide (3g)]
> 10 µM: IC50 (Cannabinoid receptor 1) | Ki (Cannabinoid receptor 1) | IC50 (Cannabinoid receptor 2) | Ki (Cannabinoid receptor 2)

CCC(C)(O)NC(=O)CCC(=O)/C=C/c1ccc(-c2ccccc2)cc1 (stereo not given) [(E)-6-(Biphenyl-4-yl)-N-(2-hydroxybutan-2-yl)-4-oxohex-5-enamide (3m)]
> 10 µM: IC50 (Cannabinoid receptor 1) | Ki (Cannabinoid receptor 1) | IC50 (Cannabinoid receptor 2) | Ki (Cannabinoid receptor 2)

Cc1ccc(/C=C/C(=O)CCC(=O)NC(CO)(CO)CO)cc1 [(E)-N-(1,3-Dihydroxy-2-(hydroxymethylpropan-2-yl)-4-oxo-6-p-tolylhex-5-enamide (3e)]
> 10 µM: IC50 (Cannabinoid receptor 1) | Ki (Cannabinoid receptor 1) | IC50 (Cannabinoid receptor 2) | Ki (Cannabinoid receptor 2)

CC(=O)Nc1ccc(OC(=O)CCC(=O)/C=C/c2ccccc2)cc1 [(E)-4-Acetamidophenyl 4-oxo-6-phenylhex-5-enoate (3l)]
> 10 µM: IC50 (Cannabinoid receptor 1) | Ki (Cannabinoid receptor 1) | IC50 (Cannabinoid receptor 2) | Ki (Cannabinoid receptor 2)

CCC(C)(O)NC(=O)CCC(=O)Nc1cccc2ccccc12 (stereo not given) [N-(2-Hydroxybutan-2-yl)-2-(4-naphthalen-1-ylamino)-4-oxobutanamide (5a)]
> 10 µM: IC50 (Cannabinoid receptor 1) | Ki (Cannabinoid receptor 1) | IC50 (Cannabinoid receptor 2) | Ki (Cannabinoid receptor 2)

CCC(C)(O)NC(=O)CCC(=O)/C=C/c1ccc(C)cc1 (stereo not given) [(E)-N-(2-Hydroxybutan-2-yl)-4-oxo-6-p-tolylhex-5-enamide (3d)]
> 10 µM: IC50 (Cannabinoid receptor 1) | Ki (Cannabinoid receptor 1) | IC50 (Cannabinoid receptor 2) | Ki (Cannabinoid receptor 2)

CCC(C)(O)NC(=O)CCC(=O)/C=C/c1ccc(OCc2ccccc2)cc1 (stereo not given) [(E)-6-(4-(Benzyloxy)phenyl)-N-(2-hydroxybutan-2-yl)-4-oxohex-5-enamide (3j)]
> 10 µM: IC50 (Cannabinoid receptor 1) | Ki (Cannabinoid receptor 1) | IC50 (Cannabinoid receptor 2) | Ki (Cannabinoid receptor 2)

CCC(C)(O)NC(=O)CCC(=O)/C=C/c1ccccc1 (stereo not given) [(E)-N-(2-Hydroxybutan-2-yl)-4-oxo-6-phenylhex-5-enamide (3a)]
> 10 µM: IC50 (Cannabinoid receptor 1) | Ki (Cannabinoid receptor 1) | IC50 (Cannabinoid receptor 2) | Ki (Cannabinoid receptor 2)
